This assay deals with T1, purified tannase (PT); cell-associated tannase (CAT) of Sporidiobolus ruineniae A45.2.
T1 construct: gene tannin acyl hydrolase; native enzyme released from cell wall with Triton X-100, Q-Sepharose purified
Put plainly: rhodanine assay of released gallic acid, A520; Michaelis-Menten fit. The class given is biochemical, Rhodosporidiobolus ruineniae. The following applies: 100 mM sodium phosphate pH 6.5, 30 °C, 10 min; 0.25-12.5 mM methyl gallate; purified free enzyme.

From paper PMC7183711, “Co-production of gallic acid and a novel cell-associated tannase by a pigment-producing yeast, Sporidiobolus ruineniae A45.2” (Microbial Cell Factories, 2020) come the findings set out here.

As a reminder, the Km is the substrate concentration at which the rate is half of its maximum. For `COC(=O)c1cc(O)c(O)c(O)c1` [methyl gallate], the Km worked out at 2600 ± 400 µM.
